Laboratory results published in patent publication US10626095B2, “Cyanotriazole compounds” (OTSUKA PHARMACEUTICAL CO., LTD., priority 2013, dated 2020).

System: NaCT-CHO (CHO cells stably expressing human NaCT)
Test: Assay of the citric acid cycle activation ([1,5-14C]-citric acid, diffusion of [14C]-CO2)
Format: cell-based
Details: 1 hour incubation at 37° C. with [1,5-14C]-citric acid
Text: Assay of the Citric Acid Cycle Activation
(1) Construction of the Human NaCT Expression Vector pME-NaCT
The human NaCT (also called SLC13A5 or NAC2; GenBank accession No. NM_177550) cDNA was inserted into the EcoRI-NotI site of the mammalian expression vector pME18S (GenBank accession No. AB009864) and purified by Qiagen Plasmid Maxi Kit (Qiagen).
(2) Establishment of NaCT Stably Expressed CHO Cells
The pME-NaCT vector and the pcDNA™3.1 vector containing the neomycin resistance gene (Life Technologies) were co-transfected into CHO-K1 cells (ATCC) by Lipofectaimine 2000 reagent (Life Technologies). The next day the cells were subcultured in Nutrient Mixture F-12 Ham (Sigma-Aldrich) with 10% FBS (Biological Industries), and Geneticin (Life Technologies) was added (final concentration 350 μg/mL) in the following day. CHO cell clones stably expressing NaCT were given by neomycin resistant cell screening and limiting dilution method. Established cell lines (named NaCT-CHO) were also maintained in culture medium (Nutrient Mixture F-12 Ham) with 10% FBS and 350 μg/mL Geneticin. For control cells (named pME-CHO) preparation, the naive pME18S were also transfected instead of pME-NaCT into CHO-K1 cells.
(3) Assay of the Citric Acid Cycle Activation
NaCT-CHO and pME-CHO were plated at 20,000 cells/well into white CulturPlate™-96 (PerkinElmer) two days before the assay. Prior to assay incubation, the cultured plates were washed twice with washing buffer, 10 mM HEPES-Tris(pH7.4) containing 140 mM choline chloride, 2 mM KCl, 1 mM CaCl2, 1 mM MgCl2. The compounds to be tested were dissolved and diluted in DMSO (Wako Pure Chemical industries) to 1,000 times of a final concentration, and further diluted to two times as high as the final concentration in assay buffer, 10 mM HEPES-Tris(pH7.4) containing 140 mM NaCl, 2 mM KCl, 1 mM CaCl2, 1 mM MgCl2. The range of final concentrations was properly determined based on the test compounds activity. Each 25 μL compound solution was added to well and subsequently 25 μL radio-labeled substrate solution containing 0.4 mM (0.4 MBq/mL) [1,5-^14C]-citric acid (PerkinElmer) in the assay buffer was added. After 1 hour incubation at 37° C., the reaction mixture was discarded and washed three times with pre-chilled washing buffer and then 0.1 mL MicroScint 20 (PerkinElmer) was added to well. The plate was sealed with TopSeal-A (PerkinElmer) and the radioactivity was measured using a TopCount (PerkinElmer). Non-specific activity (NS cpm) and total radio activity (Total cpm) were determined by counting of pME-CHO plated wells and NaCT-CHO plated wells without compounds, respectively. Diffusion of [^14C]—CO2 was able to be estimated from residual radioactivity (R cpm) by an equation (Total−R)/(Total−NS)×100(%). The difference of Total and R was disappeared in the presence of 0.1 μM antimycin A. EC50 values were calculated by regression analysis using SAS Statistical Analysis System (SAS institute Japan Ltd. Release 9.1).

SMILES | EC50 [nM]
N#Cc1[nH]nnc1-c1cc(Cl)cc(CC2CC2)c1 [Example 1, 5-(3-chloro-5-cyclopropylmethyl-phenyl)-3H-[1,2,3]triazole-4-carbonitrile] | 500
N#Cc1[nH]nnc1-c1cc(OCCCC(F)(F)F)cc(C(F)(F)F)c1 [Example 2, 5-[3-(4,4,4-trifluoro-butoxy)-5-trifluoromethyl-phenyl]-3H-[1,2,3]triazole-4-carbonitrile] | 280
N#Cc1[nH]nnc1-c1cccc(COCC2CCCCC2)c1 [Example 3, 5-(3-cyclohexylmethoxymethyl-phenyl)-3H-[1,2,3]triazole-4-carbonitrile] | 260
N#Cc1[nH]nnc1-c1cc(Cl)ccc1-c1cccc(C(F)(F)F)c1 [Example 4, 5-(4-chloro-3′-trifluoromethyl-biphenyl-2-yl)-3H-[1,2,3]triazole-4-carbonitrile] | 240
N#Cc1[nH]nnc1-c1ccccc1Cc1cc(C(F)(F)F)cc(C(F)(F)F)c1 [Example 5, 5-[2-(3,5-bis-trifluoromethyl-benzyl)-phenyl]-3H-[1,2,3]triazole-4-carbonitrile] | 200
N#Cc1[nH]nnc1-c1cc(C(F)(F)F)ccc1/C=C/c1ccccc1 [Example 6, 5-[2-((E)-styryl)-5-trifluoromethyl-phenyl]-3H-[1,2,3]triazole-4-carbonitrile] | 400
N#Cc1[nH]nnc1-c1cc(C(F)(F)F)ccc1CCc1ccccc1 [Example 7, 5-(2-phenethyl-5-trifluoromethyl-phenyl)-3H-[1,2,3]triazole-4-carbonitrile] | 170
N#Cc1[nH]nnc1-c1cc(Cl)ccc1/C=C/c1cccc(C(F)(F)F)c1 [Example 8, 5-{5-chloro-2-[(E)-2-(3-trifluoromethyl-phenyl)-vinyl]-phenyl}-3H-[1,2,3]triazole-4-carbonitrile] | 290
Cc1cc(F)cc(-c2nn[nH]c2C#N)c1OCc1cc(F)cc(C(F)(F)F)c1 [Example 9, 5-[5-fluoro-2-(3-fluoro-5-trifluoromethyl-benzyloxy)-3-methyl-phenyl]-3H-[1,2,3]triazole-4-carbonitrile] | 230
N#Cc1[nH]nnc1-c1cc(-c2ccsc2)cc(C(F)(F)F)c1 [Example 10, 5-(3-(thiophen-3-yl)-5-trifluoromethyl-phenyl)-3H-[1,2,3]triazole-4-carbonitrile] | 70
N#Cc1[nH]nnc1-c1cc(-c2ccc(C(F)(F)F)nc2)cc(C2CC2)c1 [Example 12, 5-[3-cyclopropyl-5-(6-trifluoromethyl-pyridin-3-yl)-phenyl]-3H-[1,2,3]triazole-4-carbonitrile] | 690
CC(C)(C)c1cc(-c2ccc(C(F)(F)F)cn2)cc(-c2nn[nH]c2C#N)c1 [Example 13, 5-[3-tert-butyl-5-(5-trifluoromethyl-pyridin-2-yl)-phenyl]-3H-[1,2,3]triazole-4-carbonitrile] | 870
CCOc1ccc(-c2ccc(C(F)(F)F)nc2)cc1-c1nn[nH]c1C#N [Example 16, 5-[2-ethoxy-5-(6-trifluoromethyl-pyridin-3-yl)-phenyl]-3H-[1,2,3]triazole-4-carbonitrile] | 670
CC(C)Oc1ccc(-c2nn[nH]c2C#N)cc1-c1ccc(C(F)(F)F)nc1 [Example 17] | 520
N#Cc1[nH]nnc1-c1cc(OCC2CC2)cc(-c2ccc(C(F)(F)F)cn2)c1 [Example 18, 5-[3-cyclopropylmethoxy-5-(5-trifluoromethyl-pyridin-2-yl)-phenyl]-3H-[0,1,2,3]triazole-4-carbonitrile] | 570
N#Cc1[nH]nnc1-c1cc(OC2CCC2)cc(-c2ccc(C(F)(F)F)nc2)c1 [Example 19, 5-[3-cyclobutoxy-5-(6-trifluoromethyl-pyridin-3-yl)-phenyl]-3H-[1,2,3]triazole-4-carbonitrile] | 530
N#Cc1[nH]nnc1-c1cc(OCc2cccc(C(F)(F)F)c2)cc(-c2ccc(C(F)(F)F)cn2)c1 [Example 20, 5-[3-(3-trifluoromethyl-benzyloxy)-5-(5-trifluoromethyl-pyridin-2-yl)-phenyl]-3H-[1,2,3]triazole-4-carbonitrile] | 1620
